Assay results: ChEMBL document CHEMBL1155569, “Synthesis and structures of regioisomeric hydnocarpin-type flavonolignans” (J Nat Prod, 2000)
The source made the active and inactive calls. No cut-off for these calls is given here.

molecular target: T1, Quinolone resistance protein NorA (Staphylococcus aureus) (UniProt P0A0J7); experiment: Inhibition of Staphylococcus aureus NorA MDR efflux pump
T1 sequence (whole entry): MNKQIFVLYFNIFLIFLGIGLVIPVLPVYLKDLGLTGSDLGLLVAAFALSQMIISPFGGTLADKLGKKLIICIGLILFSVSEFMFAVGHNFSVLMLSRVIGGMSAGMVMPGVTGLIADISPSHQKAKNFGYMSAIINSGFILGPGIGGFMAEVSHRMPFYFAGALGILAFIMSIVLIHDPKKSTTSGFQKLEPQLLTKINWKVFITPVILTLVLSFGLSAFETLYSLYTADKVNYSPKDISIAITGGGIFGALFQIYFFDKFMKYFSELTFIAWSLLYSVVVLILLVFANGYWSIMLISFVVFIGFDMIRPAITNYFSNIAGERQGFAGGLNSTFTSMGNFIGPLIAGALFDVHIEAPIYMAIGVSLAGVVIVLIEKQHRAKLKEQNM

Structure (SMILES)	Activity
COc1cc([C@H]2Oc3cc(-c4cc(=O)c5c(O)cc(O)cc5o4)ccc3O[C@@H]2CO)ccc1O (racemic)	Active
COc1cc([C@H]2Oc3cc(-c4cc(=O)c5c(O)cc(O)cc5o4)cc(OC)c3O[C@@H]2CO)ccc1O (racemic)	Active
COc1cc([C@H]2Oc3c(OC)cc(-c4cc(=O)c5c(O)cc(O)cc5o4)cc3O[C@@H]2CO)ccc1O (racemic)	Active
COc1cc([C@H]2Oc3ccc(-c4cc(=O)c5c(O)cc(O)cc5o4)cc3O[C@@H]2CO)ccc1O (racemic)	Active
